What was measured:
Assay in all cases: LPS-stimulated whole bovine blood assay, MSD cytokine detection
Type in all cases: cell-based
[1] = test system: IL-1β; conditions: overstimulation of IL-1β, LPS-stimulated bovine whole blood
[2] = test system: IL-6; conditions: Bos taurus, LPS-stimulated bovine whole blood; read-out: IL-6 (IC50 μM)
Source text: In order to correlate RNA sequencing data to cytokine changes the whole blood assay was utilized. […] The enhancement result represents an overall stimulation of cytokine levels due to cellular stress or potential toxicity with increasing concentrations of the compound, representing a typical bell shape response curve for immunomodulatory activity.

[3] = test system: TNF-α; conditions: Bos taurus, LPS-stimulated bovine whole blood; read-out: TNF-α (IC50 μM)

Row | Structure (SMILES) | IC50 [2] | IC50 [3] | IL-1β OS of LPS [1]
1 | CCCNC[C@]1(O)[C@H](C)O[C@@H](O[C@H]2[C@H](C)[C@@H](O[C@@H]3O[C@H](C)C[C@H](N(C)C(=O)N4Cc5ccccc5C4)[C@H]3O)[C@](C)(O)C[C@@H](C)CN[C@H](C)[C@@H](O)[C@](C)(O)[C@@H](CC)OC(=O)[C@@H]2C)C[C@@]1(C)OC [Example I-7, N-((2S,3R,4S,6R)-2-(((2R,3S,4R,5R,8R,10R,11R,12S,13S,14R)-2-ethyl-3,4,10-trihydroxy-13-(((2R,4R,5S,6S)-5-hydroxy-4-methoxy-4,6-dimethyl-5-((propylamino)methyl)tetrahydro-2H-pyran-2-yl)oxy)-3,5,8,10,12,14-hexamethyl-15-oxo-1-oxa-6-azacyclopentadecan-11-yl)oxy)-3-hydroxy-6-methyltetrahydro-2H-pyran-4-yl)-N-methylisoindoline-2-carboxamide] | 16 µM | 8 µM | 6 µM
2 | CC[C@H]1OC(=O)[C@H](C)[C@@H](O[C@H]2C[C@@](C)(OC)[C@](O)(CN3CCN(C)CC3)[C@H](C)O2)[C@H](C)[C@@H](O[C@@H]2O[C@H](C)C[C@H](N(C)C(=O)NC3CCCCC3)[C@H]2O)[C@](C)(O)C[C@@H](C)CN[C@H](C)[C@@H](O)[C@]1(C)O [Example J-1, 3-cyclohexyl-1-((2S,3R,4S,6R)-2-(((2R,3S,4R,5R,8R,10R,11R,12S,13S,14R)-2-ethyl-3,4,10-trihydroxy-13-(((2R,4R,5S,6S)-5-hydroxy-4-methoxy-4,6-dimethyl-5-((4-methylpiperazin-1-yl)methyl)tetrahydro-2H-pyran-2-yl)oxy)-3,5,8,10,12,14-hexamethyl-15-oxo-1-oxa-6-azacyclopentadecan-11-yl)oxy)-3-hydroxy-6-methyltetrahydro-2H-pyran-4-yl)-1-methylurea] | 250 µM | 70 µM | 200 µM
3 | CCNC(=O)N(C)[C@H]1C[C@@H](C)O[C@@H](O[C@@H]2[C@@H](C)[C@H](O[C@H]3C[C@@](C)(OC)[C@](O)(CN4CCN(C)CC4)[C@H](C)O3)[C@@H](C)C(=O)O[C@H](CC)[C@@](C)(O)[C@H](O)[C@@H](C)NC[C@H](C)C[C@@]2(C)O)[C@@H]1O [Example J-2, 3-ethyl-1-((2S,3R,4S,6R)-2-(((2R,3S,4R,5R,8R,10R,11R,12S,13S,14R)-2-ethyl-3,4,10-trihydroxy-13-(((2R,4R,5S,6S)-5-hydroxy-4-methoxy-4,6-dimethyl-5-((4-methylpiperazin-1-yl)methyl)tetrahydro-2H-pyran-2-yl)oxy)-3,5,8,10,12,14-hexamethyl-15-oxo-1-oxa-6-azacyclopentadecan-11-yl)oxy)-3-hydroxy-6-methyltetrahydro-2H-pyran-4-yl)-1-methylurea] | > 500 µM | > 500 µM | >500 µM
4 | CC[C@H]1OC(=O)[C@H](C)[C@@H](O[C@H]2C[C@@](C)(OC)[C@](O)(CN3CCN(C)CC3)[C@H](C)O2)[C@H](C)[C@@H](O[C@@H]2O[C@H](C)C[C@H](N(C)C(=O)Nc3ccc(N(C)C)cc3)[C@H]2O)[C@](C)(O)C[C@@H](C)CN[C@H](C)[C@@H](O)[C@]1(C)O [Example J-6, 3-(4-(dimethylamino)phenyl)-1-((2S,3R,4S,6R)-2-(((2R,3S,4R,5R,8R,10R,11R,12S,13S,14R)-2-ethyl-3,4,10-trihydroxy-13-(((2R,4R,5S,6S)-5-hydroxy-4-methoxy-4,6-dimethyl-5-((4-methylpiperazin-1-yl)methyl)tetrahydro-2H-pyran-2-yl)oxy)-3,5,8,10,12,14-hexamethyl-15-oxo-1-oxa-6-azacyclopentadecan-11-yl)oxy)-3-hydroxy-6-methyltetrahydro-2H-pyran-4-yl)-1-methylurea] | > 500 µM | 225 µM | >500 µM

More lines, main results first:

Row | IC50 [2] | IC50 [3] | Structure (SMILES) | IL-1β OS of LPS [1]
5 | > 500 µM | > 500 µM | CC[C@H]1OC(=O)[C@H](C)[C@@H](O[C@H]2C[C@@](C)(OC)[C@](O)(CN3CCN(C)CC3)[C@H](C)O2)[C@H](C)[C@@H](O[C@@H]2O[C@H](C)C[C@H](N(C)C(N)=O)[C@H]2O)[C@](C)(O)C[C@@H](C)CN[C@H](C)[C@@H](O)[C@]1(C)O [Example J-5, 1-((2S,3R,4S,6R)-2-(((2R,3S,4R,5R,8R,10R,11R,12S,13S,14R)-2-ethyl-3,4,10-trihydroxy-13-(((2R,4R,5S,6S)-5-hydroxy-4-methoxy-4,6-dimethyl-5-((4-methylpiperazin-1-yl)methyl)tetrahydro-2H-pyran-2-yl)oxy)-3,5,8,10,12,14-hexamethyl-15-oxo-1-oxa-6-azacyclopentadecan-11-yl)oxy)-3-hydroxy-6-methyltetrahydro-2H-pyran-4-yl)-1-methylurea] | >500 µM
6 | > 500 µM | > 500 µM | CC[C@H]1OC(=O)[C@H](C)[C@@H](O[C@H]2C[C@@](C)(OC)[C@](O)(CN3CCN(C)CC3)[C@H](C)O2)[C@H](C)[C@@H](O[C@@H]2O[C@H](C)C[C@H](N(C)C(=O)Nc3cccnc3)[C@H]2O)[C@](C)(O)C[C@@H](C)CN[C@H](C)[C@@H](O)[C@]1(C)O [Example J-8, 1-((2S,3R,4S,6R)-2-(((2R,3S,4R,5R,8R,10R,11R,12S,13S,14R)-2-ethyl-3,4,10-trihydroxy-13-(((2R,4R,5S,6S)-5-hydroxy-4-methoxy-4,6-dimethyl-5-((4-methylpiperazin-1-yl)methyl)tetrahydro-2H-pyran-2-yl)oxy)-3,5,8,10,12,14-hexamethyl-15-oxo-1-oxa-6-azacyclopentadecan-11-yl)oxy)-3-hydroxy-6-methyltetrahydro-2H-pyran-4-yl)-1-methyl-3-(pyridin-3-yl)urea] | >500 µM
7 | > 250 µM | 122 µM | CC[C@H]1OC(=O)[C@H](C)[C@@H](O[C@H]2C[C@@](C)(OC)[C@](O)(CN3CC(N(C)C)C3)[C@H](C)O2)[C@H](C)[C@@H](O[C@@H]2O[C@H](C)C[C@H](N(C)C(=O)N(C)c3ccccc3)[C@H]2O)[C@](C)(O)C[C@@H](C)CN[C@H](C)[C@@H](O)[C@]1(C)O [Example J-26, 1-((2S,3R,4S,6R)-2-(((2R,3S,4R,5R,8R,10R,11R,12S,13S,14R)-13-(((2R,4R,5S,6S)-5-((3-(dimethylamino)azetidin-1-yl)methyl)-5-hydroxy-4-methoxy-4,6-dimethyltetrahydro-2H-pyran-2-yl)oxy)-2-ethyl-3,4,10-trihydroxy-3,5,8,10,12,14-hexamethyl-15-oxo-1-oxa-6-azacyclopentadecan-11-yl)oxy)-3-hydroxy-6-methyltetrahydro-2H-pyran-4-yl)-1,3-dimethyl-3-phenylurea] | 100 µM
8 | 124 µM | 48 µM | CC[C@H]1OC(=O)[C@H](C)[C@@H](O[C@H]2C[C@@](C)(OC)[C@](O)(Cn3cncn3)[C@H](C)O2)[C@H](C)[C@@H](O[C@@H]2O[C@H](C)C[C@H](N(C)C(=O)N(C)c3ccccc3)[C@H]2O)[C@](C)(O)C[C@@H](C)CN[C@H](C)[C@@H](O)[C@]1(C)O [Example J-27, 1-((2S,3R,4S,6R)-2-(((2R,3S,4R,5R,8R,10R,11R,12S,13S,14R)-13-(((2R,4R,5S,6S)-5-((1H-1,2,4-triazol-1-yl)methyl)-5-hydroxy-4-methoxy-4,6-dimethyltetrahydro-2H-pyran-2-yl)oxy)-2-ethyl-3,4,10-trihydroxy-3,5,8,10,12,14-hexamethyl-15-oxo-1-oxa-6-azacyclopentadecan-11-yl)oxy)-3-hydroxy-6-methyltetrahydro-2H-pyran-4-yl)-1,3-dimethyl-3-phenylurea] | 250 µM

Reference: patent US12295936B2, “Immunomodulating urea azalides” (Zoetis Services LLC, priority 2020, dated 2025)
